Test results as given in publication PMC8003627, “Synthesis and Biological Evaluation of 2,3,4-Triaryl-1,2,4-oxadiazol-5-ones as p38 MAPK Inhibitors” (Molecules, 2021).

These compounds were tested against p38α MAP kinase (Homo sapiens, UniProt Q16539) (assay: p38α MAP kinase inhibition assay (non radioactive immunosorbent enzyme assay, ATF-2 phosphorylation; Ultra Glo Promega kit)). Details: mean of four separated experiments; compounds assayed at 10^−4 to 10^−8 M.
Type: biochemical

Chain of p38α MAP kinase (Q16539 whole entry): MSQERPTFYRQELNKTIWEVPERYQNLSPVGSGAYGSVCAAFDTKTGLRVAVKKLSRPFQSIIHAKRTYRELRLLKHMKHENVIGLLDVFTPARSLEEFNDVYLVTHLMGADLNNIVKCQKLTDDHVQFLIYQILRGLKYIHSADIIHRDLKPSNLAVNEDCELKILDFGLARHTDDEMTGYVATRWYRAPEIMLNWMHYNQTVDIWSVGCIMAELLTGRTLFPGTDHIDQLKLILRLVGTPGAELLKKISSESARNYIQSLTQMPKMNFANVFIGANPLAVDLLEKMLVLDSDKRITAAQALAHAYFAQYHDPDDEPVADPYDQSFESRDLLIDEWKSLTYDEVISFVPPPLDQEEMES

SMILES	IC50 [µM]
O=C1ON(Cc2ccccc2)C(c2ccncc2)N1c1ccc([N+](=O)[O-])cc1 (centres unmarked) [Compound 3f, 2-Benzyl-4-(4-nitrophenyl)-3-(pyridin-4-yl)-1,2,4-oxadiazolidin-5-one]	0.15
O=C1ON(Cc2ccccc2)C(c2ccccc2)N1c1ccc(F)cc1 (centres unmarked) [Compound 3g, 2-Benzyl-4-(4-fluorophenyl)-3-phenyl-1,2,4-oxadiazolidin-5-one]	15.1
O=C1ON(Cc2ccccc2)C(c2ccccc2)N1c1ccc([N+](=O)[O-])cc1 (centres unmarked) [Compound 3h, 2-Benzyl-4-(4-nitrophenyl)-3-phenyl-1,2,4-oxadiazolidin-5-one]	60.5
CC1N(Cc2ccccc2)OC(=O)N1c1ccc(F)cc1 (centres unmarked) [Compound 3i, 2-Benzyl-4-(4-fluorophenyl)-3-methyl-1,2,4-oxadiazolidin-5-one]	18.5
CC1N(c2ccccc2)OC(=O)N1c1ccc(F)cc1 (centres unmarked) [Compound 3l, 2-Phenyl-4-(4-fluorophenyl)-3-methyl-1,2,4-oxadiazolidin-5-one]	22.8

Continued, values first:

IC50 [µM]	SMILES
2	O=C1ON(c2ccccc2)C(c2ccncc2)N1c1ccc(C(F)(F)F)cc1 (centres unmarked) [Compound 3c, 2-Phenyl-4-(4-trifluoromethyl)-3-(pyridin-4-yl)-1,2,4-oxadiazolidin-5-one]
1.5	O=C1ON(c2ccccc2)C(c2ccncc2)N1c1ccc(Cl)cc1 (centres unmarked) [Compound 3d, 2-Phenyl-4-(4-chlorophenyl)-3-(pyridin-4-yl)-1,2,4-oxadiazolidin-5-one]
0.08	O=C1ON(Cc2ccccc2)C(c2ccncc2)N1c1ccc(F)cc1 (centres unmarked) [Compound 3e, 2-Benzyl-4-(4-fluorophenyl)-3-(pyridin-4-yl)-1,2,4-oxadiazolidin-5-one]
